Experimental data from patent US10899759B2, “Positive allosteric modulators of the muscarinic acetylcholine receptor M1” (Vanderbilt University, priority 2016, dated 2021).

Biological target: T1, human mAChR M1 (Homo sapiens, UniProt P11229)
T1 construct: host or cells: CHO-K1
T1 sequence (P11229 1-460): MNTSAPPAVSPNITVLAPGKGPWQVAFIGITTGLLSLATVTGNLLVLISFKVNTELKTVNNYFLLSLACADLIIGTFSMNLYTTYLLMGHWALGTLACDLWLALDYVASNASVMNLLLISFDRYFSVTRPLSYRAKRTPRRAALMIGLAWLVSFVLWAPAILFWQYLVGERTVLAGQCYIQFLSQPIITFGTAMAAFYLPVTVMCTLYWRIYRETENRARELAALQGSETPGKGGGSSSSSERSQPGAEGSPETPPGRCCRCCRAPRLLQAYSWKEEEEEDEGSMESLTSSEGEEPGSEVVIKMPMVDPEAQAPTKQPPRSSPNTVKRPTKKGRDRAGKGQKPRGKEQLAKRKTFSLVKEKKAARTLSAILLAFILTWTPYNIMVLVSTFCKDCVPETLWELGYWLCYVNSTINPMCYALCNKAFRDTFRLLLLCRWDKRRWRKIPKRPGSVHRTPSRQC
Assay: mAChR M1 cell-based functional assay (calcium mobilization, Fluo-4, FDSS)
Conditions: CHO-K1 cells stably expressing hM1; for Emax: EC20 acetylcholine response, read-out: Human M1 Emax; for EC50: positive allosteric modulator activity as increase in the EC20 acetylcholine response
Protocol: Chinese hamster ovary (CHO-K1) cells stably expressing rat (r)M1 were purchased from the American Type Culture Collection and cultured according to their indicated protocol. […] To make stable rM2, hM2, rM3, hM4, and rM4 cell lines for use in calcium mobilization assays, these cells also were stably transfected with a chimeric G-protein (Gqi5) (provided by B. R. Conklin, University of California, San Francisco) using Lipofectamine 2000. rM1, hM1, rM3, hM3, rM5, and hM5 cells were grown in Ham's F-12 medium containing 10% heat-inactivated fetal bovine serum (FBS), 20 mM HEPES, and 50 μg/mL G418 sulfate. rM2-Gqi5, hM2-Gqi5, and hM4-Gqi5 cells were grown in the same medium also containing 500 μg/mL Hygromycin B. Stable rM4-Gqi5 cells were grown in DMEM containing 10% heat-inactivated FBS, 20 mM HEPES, 400 μg/mL G418 sulfate, and 500 μg/mL Hygromycin B.
For high throughput measurement of agonist-evoked increases in intracellular calcium, CHO-K1 cells stably expressing muscarinic receptors were plated in growth medium lacking G418 and hygromycin at 15,000 cells/20 μL/well in Greiner 384-well black-walled, tissue culture (TC)-treated, clear-bottom plates (VWR). Cells were incubated overnight at 37° C. and 5% CO2. […] Compound master plates were formatted in an 11 point CRC format (1:3 dilutions) in 100% DMSO with a starting concentration of 10 mM using the BRAVO liquid handler (Agilent). Test compound CRCs were then transferred to daughter plates (240 nL) using the Echo acoustic plate reformatter (Labcyte, Sunnyvale, Calif.) and then diluted into assay buffer (40 μL) to a 2× stock using a Thermo Fisher Combi (Thermo Fisher Scientific, Waltham, Mass.).
Calcium flux was measured using the Functional Drug Screening System (FDSS) 6000 (Hamamatsu Corporation, Tokyo, Japan) as an increase in the fluorescent static ratio. Compounds were applied to cells (20 μL, 2×) using the automated system of the FDSS 6000 at 4 s into the 300 s protocol and the data were collected at 1 Hz. […] Agonist activity was analyzed as a concentration-dependent increase in calcium mobilization upon compound addition. Positive allosteric modulator activity was analyzed as a concentration-dependent increase in the EC20 acetylcholine response. Antagonist activity was analyzed as a concentration-dependent decrease in the EC80 acetylcholine response. Concentration-response curves were generated using a four-parameter logistical equation in XLfit curve fitting software (IDBS, Bridgewater, N.J.) for Excel (Microsoft, Redmond, Wash.) or Prism (GraphPad Software, Inc., San Diego, Calif.).
The compound numbers correspond to the compound numbers used in Table 1.

Structure (SMILES) | Emax [%] | EC50 [µM]
Cn1ccc2c(Cc3ccc(-c4nccs4)cc3)cc(C(=O)N[C@H]3CCOC[C@@H]3O)nc21 [Compound 59, N-[(3R,4S)-3-hydroxytetrahydropyran-4-yl]-1-methy1-4-[(4-thiazol-2-ylphenyl)methyl]pyrrolo[2,3-b]pyridine-6-carboxamide] | 57.3 | 0.03
Cn1cc(-c2ccc(Cc3cc(C(=O)NCC4CCOC4)nc4sccc34)cn2)cn1 (stereo not shown) [Compound 122, 4-[[6-(1-methylpyrazol-4-yl)-3-pyridyl]methyl]-N-(tetrahydrofuran-3-ylmethyl)thieno[2,3-b]pyridine-6-carboxamide] | 57.5 | 0.7
Cn1ccc(-c2ccc(Cc3cc(C(=O)NC4CC(F)(F)C4)nc4c3ccn4C)cn2)n1 [Compound 154, N-(3,3-difluorocyclobutyl)-1-methyl-4-[[6-(1-methylpyrazol-3-yl)-3-pyridyl]methyl]pyrrolo[2,3-b]pyridine-6-carboxamide] | 66.1 | 2.53
Cc1nc(-c2ccc(Cc3cc(C(=O)NCC4CCN4)nc4sccc34)cc2)co1 (stereo not shown) [Compound 142, N-(azetidin-2-ylmethyl)-4-[[4-(2-methyloxazol-4-yl)phenyl]methyl]thieno[2,3-b]pyridine-6-carboxamide] | 60.1 | 2.37
Cn1ccc(-c2ccc(Cc3cc(C(=O)N[C@H]4CC[C@@H]4O)nc4c3ccn4C)cn2)n1 [Compound 156, N-[(1S,2S)-2-hydroxycyclobutyl]-1-methyl-4-[[6-(1-methylpyrazol-3-yl)-3-pyridyl]methyl]pyrrolo[2,3-b]pyridine-6-carboxamide] | 74.2 | 0.92
Cn1ccc2c(Cc3ccc(-c4cscn4)cc3)cc(C(=O)NC3CN(C4COC4)C3)nc21 [Compound 36, 1-methyl-N-[1-(oxetan-3-yl)azetidin-3-yl]-4-[(4-thiazol-4-ylphenyl)methyl]pyrrolo[2,3-b]pyridine-6-carboxamide] | 66 | 3.12
Cn1ccc2c(Cc3ccc(-c4cscn4)cc3)cc(C(=O)NC3CCOCC3)nc21 [Compound 2, 1-methyl-N-tetrahydropyran-4-yl-4-[(4-thiazol-4-ylphenyl)methyl]pyrrolo[2,3-b]pyridine-6-carboxamide] | 71.2 | 0.23
Cn1ncc2c(Cc3ccc(-c4cscn4)cc3)cc(C(=O)N[C@H]3CCCC[C@@H]3O)nc21 [Compound 28, N-[(1S,2S)-2-hydroxycyclohexyl]-1-methyl-4-[(4-thiazol-4-ylphenyl)methyl]pyrazolo[3,4-b]pyridine-6-carboxamide] | 76.4 | 0.13
CC(NC(=O)c1cc(Cc2ccc(-c3ccn(C)n3)nc2)c2ccn(C)c2n1)C1CCCO1 (stereo not shown) [Compound 157, 1-methyl-4-[[6-(1-methylpyrazol-3-yl)-3-pyridyl]methyl]-N-(1-tetrahydrofuran-2-ylethyl)pyrrolo[2,3-b]pyridine-6-carboxamide] | 72.7 | 1.27
Cc1nc(-c2ccc(Cc3cc(C(=O)N[C@H]4CCOC[C@@H]4O)nc4c3ccn4C)cc2)co1 [Compound 51, N-[(3R,4S)-3-hydroxytetrahydropyran-4-yl]-1-methyl-4-[[4-(2-methyloxazol-4-yl)phenyl]methyl]pyrrolo[2,3-b]pyridine-6-carboxamide] | 83.4 | 0.03
Cn1ccc2c(Cc3ccc(-c4cscn4)cc3)cc(C(=O)N[C@@H]3CCOC3)nc21 [Compound 34, 1-methyl-N-[(3R)-tetrahydrofuran-3-yl]-4-[(4-thiazol-4-ylphenyl)methyl]pyrrolo[2,3-b]pyridine-6-carboxamide] | 54.8 | 2.19
Cn1ccc(-c2ccc(Cc3cc(C(=O)NC4CCOCC4)nc4c3ccn4C)cn2)n1 [Compound 145, 1-methyl-4-[[6-(1-methylpyrazol-3-yl)-3-pyridyl]methyl]-N-tetrahydropyran-4-yl-pyrrolo[2,3-b]pyridine-6-carboxamide] | 77.6 | 0.47
CCn1ccc2c(Cc3ccc(-n4cccn4)cc3)cc(C(=O)N[C@H]3CCCCC[C@@H]3O)nc21 [Compound 15, 1-ethyl-N-[(1S,2S)-2-hydroxycycloheptyl]-4-[(4-pyrazol-1-ylphenyl)methyl]pyrrolo[2,3-b]pyridine-6-carboxamide] | 61.8 | 0.14
Cn1ccc(-c2ccc(Cc3cc(C(=O)NC4COC4)nc4c3ccn4C)cc2)n1 [Compound 44, 1-methy1-4-[[4-(1-methylpyrazol-3-yl)phenyl]methyl]-N-(oxetan-3-yl)pyrrolo[2,3-b]pyridine-6-carboxamide] | 56.1 | 6.28

The remaining lines, values ahead:

Emax [%] | EC50 [µM] | Structure (SMILES)
68.1 | 0.37 | CC1CC(NC(=O)c2cc(Cc3ccc(-n4cccn4)cc3)c3ccsc3n2)CC(C)O1 (stereo not shown) [Compound 73, N-(2,6-dimethyltetrahydropyran-4-yl)-4-[(4-pyrazol-1-ylphenyl)methyl]thieno[2,3-b]pyridine-6-carboxamide]
63.5 | 0.37 | Cn1ccc(-c2ccc(Cc3cc(C(=O)NC4CCOCC4(C)C)nc4sccc34)cn2)n1 (stereo not shown) [Compound 105, N-(3,3-dimethyltetrahydropyran-4-yl)-4-[[6-(1-methylpyrazol-3-yl)-3-pyridyl]methyl]thieno[2,3-b]pyridine-6-carboxamide]
69.9 | 0.06 | CCn1ccc2c(Cc3ccc(-n4cccn4)cc3)cc(C(=O)N[C@H]3CCCC[C@@H]3O)nc21 [Compound 10, 1-ethyl-N-[(1S,2S)-2-hydroxycyclohexyl]-4-[(4-pyrazol-1-ylphenyl)methyl]pyrrolo[2,3-b]pyridine-6-carboxamide]
59.5 | 1.9 | Cc1nc(-c2ccc(Cc3cc(C(=O)N[C@@H]4CCOC4)nc4sccc34)cc2)co1 [Compound 137, 4-[[4-(2-methyloxazol-4-yl)phenyl]methyl]-N-[(3R)-tetrahydrofuran-3-yl]thieno[2,3-b]pyridine-6-carboxamide]
62.4 | 0.05 | Cn1ccc(-c2ccc(Cc3cc(C(=O)N[C@H]4CCCC[C@@H]4O)nc4sccc34)cc2)n1 [Compound 88, N-[(1S,2S)-2-hydroxycyclohexyl]-4-[[4-(1-methylpyrazol-3-yl)phenyl]methyl]thieno[2,3-b]pyridine-6-carboxamide]
59.5 | 0.74 | CC1COCCC1NC(=O)c1cc(Cc2ccc(-c3ccn(C)n3)cc2)c2ccsc2n1 (stereo not shown) [Compound 93, 4-[[4-(1-methylpyrazol-3-yl)phenyl]methyl]-N-(3-methyltetrahydropyran-4-yl)thieno[2,3-b]pyridine-6-carboxamide]
36.4 | 0.01 | Cn1ccc(-c2ccc(Cc3cc(C(=O)NC4CCOC(C)(C)C4)nc4sccc34)cc2)n1 (stereo not shown) [Compound 90, N-(2,2-dimethyltetrahydropyran-4-yl)-4-[[4-(1-methylpyrazol-3-yl)phenyl]methyl]thieno[2,3-b]pyridine-6-carboxamide]
63.4 | 0.01 | Cn1ccc2c(Cc3ccc(-n4cccn4)cc3)cc(C(=O)N[C@H]3CCOC[C@@H]3O)nc21 [Compound 16, N-[(3R,4S)-3-hydroxytetrahydropyran-4-yl]-1-methyl-4-[(4-pyrazol-1-ylphenyl)methyl]pyrrolo[2,3-b]pyridine-6-carboxamide]
69.1 | 1.29 | CC1(C)COCCC1NC(=O)c1cc(Cc2ccc(-n3cccn3)cc2)c2ccsc2n1 (stereo not shown) [Compound 74, N-(3,3-dimethyltetrahydropyran-4-yl)-4-[(4-pyrazol-1-ylphenyl)methyl]thieno[2,3-b]pyridine-6-carboxamide]
